Laboratory results reported in US20140287120A1, “ORGANIC COMPOUNDS” (Givaudan S.A, priority 2011, published 2014).

Test: Taste panel: intensity of umami and salt taste of solution B compared with reference solution A
Conditions: 10 ppm in a solution of 0.5% NaCl and 0.03% MSG, compared with solution A without compound; average rating of 4 flavourists; scale -3 (much lower than base) to 3 (much higher than base), 0 = same as base, 1 = slightly higher than base
Experimental: Two solutions were prepared:
A a solution of 0.5% NaCl and 0.03% MSG
B a solution of 0.5% NaCl and 0.03% MSG and 10 ppm Example 1 compound
The samples were tasted by a small group of flavourists (2 male, 2 female, aged between 30 and 60). The intensity of the umami and salt taste of solution B was compared with that of the reference (solution A) and rated according to the following intensity scale:
Taste effect much lower than base: −3
Taste effect lower than base: −2
Taste effect slightly lower than base: −1
Taste effect same as base: 0
Taste effect slightly higher than base: 1
Taste effect higher than base: 2
Taste effect much higher than base: 3
The results (average of rating given by the flavourists) were: […]

For CC(N)(CCC(=O)O)C(=O)O (racemic) [DL-2-methylglutamic acid, DL-2-Methylglutamic Acid], the “Intensity Taste Salt (NaCl)” value was 1.00 and the “Intensity Taste Umami” value was 0.00.
